Measured values reported in US11464749B2, “Bismuth-thiol compositions and methods of use” (Microbion Corporation, priority 2018, dated 2022).
Converted amounts (≈) assume the structure as drawn. Like-named read-outs stand apart in the source and are kept apart here.

Legend:
[1] = test system: B. cenocepacia; assay: Broth microdilution MIC (Example 10); settings: initial MIC testing
[2] = test system: C. albicans; assay: Broth microdilution MIC, yeast (Example 11); format: cell-based
[3] = test system: A. terreus; assay: Broth microdilution antifungal susceptibility (Example 13); format: cell-based; settings: Aspergillus terreus, A. terreus MMX 8229
[4] = test system: Enterococcus spp.; assay: Broth microdilution MIC (Example 11); settings: read-out: MIC values

Row | Compound | MIC ([1]; B. cenocepacia isolate 0548 (CIP-R)) [µg/mL] | MIC ([1]; B. cenocepacia isolate 0813 (CPI-I)) [µg/mL] | MIC ([1]; B. cenocepacia isolate 1631) [µg/mL] | MIC ([1]; B. cenocepacia isolate 1783) [µg/mL] | MIC ([1]; B. cenocepacia isolate 8555) [µg/mL] | MIC ([2]; C. albicans MMX 7055, Sensitive, 48 hr) | MIC ([2]; Candida albicans, 24 h) [µg/mL] | MIC ([2]; Candida albicans, 48 h) [µg/mL] | MIC ([3]; 24 hr, read-out: MIC0 24 hr) [µg/mL] | MIC ([3]; 48 hr, read-out: MIC0 48 hr) [µg/mL] | MIC [4] [µg/mL]
1 | C[C@@H](O)[C@H]1C(=O)N2C(C(=O)O)=C(S[C@@H]3CN[C@H](C(=O)N(C)C)C3)[C@H](C)[C@H]12 [MEM] | 4 (≈ 10.4 µM) | 2 (≈ 5.22 µM) | 4 (≈ 10.4 µM) | 4 (≈ 10.4 µM) | 4 (≈ 10.4 µM) | – | – | – | – | – | –
2 | CC(S)C(C)S.[Bi] (centres unmarked) [BisBDT, bismuth-2,3-butanedithiol] | – | – | – | – | – | 2, 2 μg/mL | 2 | 2 | 0.25 | 1 | 0.25 to 1
